Several values for one entry are separate records, joined by “and”; a condition that tells them apart may be missing. Equal entries are not always repeated.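 Protocol summary: plate cells (96-well), add compound at 5 concentrations, incubate 48 h, interpolate endpoints linearly. Abbreviation: GI50, concentration required for 50% inhibition of growth. At the TGI there is no net growth.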
Experiments:
Assay in all cases: growth of human tumour cells (NCI), 48 h
786-0 renal = tested on: 786-0 renal
A549 NSCLC = tested on: A549 NSCLC
CAKI-1 renal = tested on: CAKI-1 renal
CCRF-CEM leukemia = tested on: CCRF-CEM leukemia
DU-145 prostate = tested on: DU-145 prostate
LOX IMVI melanoma = tested on: LOX IMVI melanoma
NCI-H23 lung = tested on: NCI-H23 lung
T-47D breast = tested on: T-47D breast

SMILES	GI50 (786-0 renal)	TGI (786-0 renal)	GI50 (A549 NSCLC) [µM]	TGI (A549 NSCLC) [µM]	GI50 (CAKI-1 renal) [µM]	TGI (CAKI-1 renal) [µM]	GI50 (CCRF-CEM leukemia) [µM]	TGI (CCRF-CEM leukemia) [µM]	GI50 (DU-145 prostate) [µM]	TGI (DU-145 prostate) [µM]	GI50 (LOX IMVI melanoma) [µM]	TGI (LOX IMVI melanoma) [µM]	GI50 (NCI-H23 lung) [µM]	TGI (NCI-H23 lung)	GI50 (T-47D breast) [µM]	TGI (T-47D breast) [µM]
Cc1ccc(Nc2cc(Cl)c([N+](=O)[O-])cc2[N+](=O)[O-])cc1	3.97 µM	14 µM	7.76	22.1	4.19	17.4	1.96	19.8	2.95	7.55	1.15	5.62	3.66	14.2 µM	3.28	9.51
Nc1nonc1-c1nc2ccccc2n1Cc1ccc(F)cc1	29.1 µM	> 100 µM	5.69	> 100	3.48	> 100			> 100	> 100	6.48	> 100	87	> 100 µM	> 100	> 100
C=CC(COC(=O)C(C)(C)OC(C)=O)c1ccc(OC(=O)C(C)C)c(OC)c1 (stereo not given)		> 24.9 µM		47.5		4.07		> 22		25.9		> 33.3		39.3 µM		> 37.2
Cc1ccc(S(=O)(=O)OCC#CCOS(=O)(=O)c2ccc(C)cc2)cc1	2.57 µM	7.15 µM	4.85	19.8	0.512	1.5	1.96	5.79	1.86	3.76	1.15	2.56	1.99	5.04 µM	1.94	4.26
Nc1c(C(=O)Nc2ccccn2)sc2nc3c(cc12)C(O)CCC3 (stereo not given)	1.95 µM	> 50 µM	2.6	> 50	2.92	> 50	0.906	> 50	1.94	> 50	3.09	> 50	3.05	> 50 µM		
NCCCOc1cc2ccccc2cc1C(=O)Nc1ccc(Cl)cc1OC(=O)c1cc2ccccc2cc1OCCCN	0.172 µM	0.327 µM			1.4	4.12	0.413	1.39	0.303	0.781	0.162	0.316	0.387	1.2 µM	0.282	1.02
CNC(=O)c1cc(Oc2cccc3nc(NC(=O)Nc4cc(C(F)(F)F)cc(C(F)(F)F)c4)ccc23)ccn1	2.41 µM	5.73 µM	4.54	> 100	10.1	57.3	29.4	> 100	6.29	65.9	3.26	29.5	6.15	42.7 µM	4.13	31.1
Cc1cc(-c2nnc(/C=C/c3ccc4c(c3)OCO4)o2)n[nH]1	16.7 µM	> 50 µM	21.4	> 50	3.89	> 50	2.05	19.1	9.17	29.4	15.9	> 50	11.9	> 50 µM	22	> 50
O=C1CC[C@H](N2Cc3c(OCc4ccc(CN5CCOCC5)cc4)cccc3C2=O)C(=O)N1	> 100 µM	> 100 µM	> 100	> 100	> 100	> 100	> 100	> 100	> 100	> 100	> 100	> 100			> 100	> 100
C=C1c2ccccc2C(=O)c2c1c1c(C(=O)OC)c(OC(=O)OCc3ccc([N+](=O)[O-])cc3)ccc1n2Cc1ccccc1	7.17 µM	26 µM	16.5	> 100	20.3	58.2	1.78	6.83	3.62	33.5	35.7	> 100	4.22	17.9 µM		
CCCCCCCCCCCCCCCCCCNCc1ccc(Cl)cc1	8.61 µM	25.1 µM	2.52	5.65			2.69	8.66	2.06	4.44	2.04	4.92	3.07	12 µM	4.28	24.9
NC(=S)N=Nc1c(O)[nH]c2c(Cl)cc(Cl)cc12		92.9 µM		> 100		> 100		> 100				48		> 100 µM		
O=C(O)C1CC=CCC1C(=O)Nc1cccc(O)c1 (stereo not given)		> 100 µM		> 100		> 100				> 100		> 100		> 100 µM		> 100
O=S(=O)(NCCNc1nccc(-c2c(-c3ccc(F)c(O)c3)nc3sccn23)n1)c1ccc(Cl)cc1	3.38 µM	13.6 µM	1.69	> 50	1.99	10.4			2.9	> 50	1.78	> 50	3.56	12.2 µM	1.08	8.28
COCCOCCOCc1n(Cc2ccc3ccccc3c2)c2ccccc2[n+]1Cc1ccc2ccccc2c1	1.31 µM	2.65 µM	1.33	3.84			0.488	2.29	0.766	2.14	0.419	1.67	0.392	1.73 µM	0.216	1.12
N#CC1=C(N)NC(=S)NC1c1ccc(-c2ccc(-c3nc4ccccc4o3)cc2)s1 (stereo not given)	11.1 µM	22.4 µM	9	20.2	10.1	36.4			17.6	> 50	9.58	21.4	12	27.4 µM	15.4	> 50
Nc1ncnc2c1ncn2C1OC(COS(N)(=O)=O)C(O)C1O (stereo not given)	0.00213 µM and 0.0204 µM	0.00465 µM and 0.0433 µM						0.173	< 0.001		0.018	0.0382		0.00558 µM and 0.0546 µM		
COc1ccc(C(C)c2cc(OC)c(OC)c(OC)c2)cc1 (stereo not given)	0.213 µM	> 50 µM	0.189	> 50			0.182	> 50	0.198	> 50	0.537	> 50	0.292	> 50 µM		
